Data published in patent US20250296939A1, “BENZOTHIOPHENE COMPOUND” (Kyoto Pharmaceutical Industries, Ltd., priority 2022, published 2025).
pIC50: −log10 of the molar value.

Assays:
[1] = target: GST-fused human Keap1 (amino acid residues: 325-642) protein (Homo sapiens (Human), UniProt Q14145); assay: FP assay (in vitro): inhibition of binding between Nrf2 and Keap1 by fluorescence polarization; details: 20 nM GST-fused human Keap1, 10 nM FITC-labeled Nrf2 peptide, 2 hr at room temperature
[2] = system: NQO1 activity in Hepa1c1c7 cells; assay: NAD(P)H: quinone oxidoreductase-1 (NQO1) enzyme induction assay (in vitro); format: cell-based, mouse; details: Mus musculus, Hepa-1c1c7, NQO1 activity upon addition of 400 nM of test compound, about 48 hr, ratio from the base without the compound
Method in brief: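 Mouse Hepa1c1c7 hepatoma cells were treated with 400 nM compound for about 48 h, then lysed with digitonin/EDTA. NQO1 activity was measured as menadione-mediated MTT reduction with a G6P/G6PDH NADPH-regenerating system, stopped with dicoumarol, and read at A610. Values are the activity ratio versus untreated base wells.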

Chain of GST-fused human Keap1 (amino acid residues: 325-642) protein (Q14145 325-624 limits assumed): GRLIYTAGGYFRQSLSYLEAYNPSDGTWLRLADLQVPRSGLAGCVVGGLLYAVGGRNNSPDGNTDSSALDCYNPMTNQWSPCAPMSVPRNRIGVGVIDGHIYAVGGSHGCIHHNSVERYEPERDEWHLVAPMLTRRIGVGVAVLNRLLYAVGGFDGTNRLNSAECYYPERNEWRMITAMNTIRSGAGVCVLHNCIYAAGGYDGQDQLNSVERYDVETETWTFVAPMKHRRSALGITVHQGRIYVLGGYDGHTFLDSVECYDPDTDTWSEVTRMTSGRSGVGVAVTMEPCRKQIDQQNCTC

SMILES	pIC50 [1]	fold induction at 0.4 µM [2]
Cc1c([C@H](CC(=O)O)c2cc(CN3Cc4nc(O)ccc4O[C@H](C(F)(F)F)C3)c3sccc3c2)cnc2c1nnn2C [Example 46, (3R)-3-(3,7-Dimethyl-3H-[1,2,3]triazolo[4,5-b]pyridin-6-yl)-3-(7-{[(2S)-7-hydroxy-2-(trifluoromethyl)-2,3-dihydropyrido[2,3-f][1,4]oxazepin-4(5H)-yl]methyl}-1-benzothiophen-5-yl)propanoic acid]	≥ 8.00	3 to 5
Cc1c([C@@H](c2cc(CN3Cc4nc(O)ccc4OC4(CC4)C3)c3sccc3c2)C(C)(C)C(=O)O)ccc2c1nnn2C [Example 47, (3R)-3-(1,4-Dimethyl-1H-benzotriazol-5-yl)-3-{7-[(7′-hydroxy-3′H-spiro[cyclopropane-1,2′-pyrido[2,3-f][1,4]oxazepin]-4′ (5′H)-yl)methyl]-1-benzothiophen-5-yl}-2,2-dimethylpropanoic acid]	5.52 to 6.52	1.5 to 3
CC[C@@H]1CN(Cc2cc([C@@H](c3cnc4c(nnn4C)c3C)C(C)(C)C(=O)O)cc3ccsc23)Cc2nc(O)ccc2O1 [Example 48, (3S)-3-(3,7-Dimethyl-3H-[1,2,3]triazolo[4,5-b]pyridin-6-yl)-3-(7-{[(2R)-2-ethyl-7-hydroxy-2,3-dihydropyrido[2,3-f][1,4]oxazepin-4(5H)-yl]methyl}-1-benzothiophen-5-yl)-2,2-dimethylpropanoic acid]	7.52 to 8.00	> 5
CC[C@@H]1CN(Cc2cc([C@H](c3cnc4c(nnn4C)c3C)C(C)(C)C(=O)O)cc3ccsc23)Cc2nc(O)ccc2O1 [Example 49, (3R)-3-(3,7-Dimethyl-3H-[1,2,3]triazolo[4,5-b]pyridin-6-yl)-3-(7-{[(2R)-2-ethyl-7-hydroxy-2,3-dihydropyrido[2,3-f][1,4]oxazepin-4(5H)-yl]methyl}-1-benzothiophen-5-yl)-2,2-dimethylpropanoic acid]	5.52 to 6.52	3 to 5
Cc1c([C@H](c2cc(CN3Cc4nc(O)ccc4OC4(CC4)C3)c3sccc3c2)C(C)(C)C(=O)O)cnc2c1nnn2C [Example 50, (3S)-3-(3,7-Dimethyl-3H-[1,2,3]triazolo[4,5-b]pyridin-6-yl)-3-{7-[(7′-hydroxy-3′H-spiro[cyclopropane-1,2′-pyrido[2,3-f][1,4]oxazepin]-4′(5′H)-yl)methyl]-1-benzothiophen-5-yl}-2,2-dimethylpropanoic acid]	7.52 to 8.00	> 5
Cc1c([C@H](c2cc(CN3Cc4nc(O)ccc4O[C@H](C4CC4)C3)c3sccc3c2)C(C)(C)C(=O)O)cnc2c1nnn2C [Example 51, (3S)-3-(7-{[(2R)-2-Cyclopropyl-7-hydroxy-2,3-dihydropyrido[2,3-f][1,4]oxazepin-4(5H)-yl]methyl}-1-benzothiophen-5-yl)-3-(3,7-dimethyl-3H-[1,2,3]triazolo[4,5-b]pyridin-6-yl)-2,2-dimethylpropanoic acid]	7.52 to 8.00	> 5
Cc1c(C(CC(=O)O)c2cc(CN3Cc4nc(O)ccc4OC4(CC4)C3)c3sccc3c2)ccn2c(C)nnc12 (stereo not drawn) [Example 54, 3-(3,8-Dimethyl[1,2,4]triazolo[4,3-a]pyridin-7-yl)-3-{7-[(7′-hydroxy-3′H-spiro[cyclopropane-1,2′-pyrido[2,3-f][1,4]oxazepin]-4′(5′H)-yl)methyl]-1-benzothiophen-5-yl}propanoic acid]	7.52 to 8.00	3 to 5
CC[C@@H]1CN(Cc2cc([C@@H](CC(=O)O)c3ccc4c(nnn4C)c3C)cc3ccsc23)Cc2nc(N)ccc2O1 [Example 55, (3R)-3-(7-{[(2R)-7-Amino-2-ethyl-2,3-dihydropyrido[2,3-f][1,4]oxazepin-4(5H)-yl]methyl}-1-benzothiophen-5-yl)-3-(1,4-dimethyl-1H-benzotriazol-5-yl)propanoic acid]	≥ 8.00	> 5
CC[C@@H]1CN(Cc2cc([C@H](CC(=O)O)c3ccc4c(nnn4C)c3C)cc3ccsc23)Cc2nc(N)ccc2O1 [Example 56, (3S)-3-(7-{[(2R)-7-Amino-2-ethyl-2,3-dihydropyrido[2,3-f][1,4]oxazepin-4(5H)-yl]methyl}-1-benzothiophen-5-yl)-3-(1,4-dimethyl-1H-benzotriazol-5-yl)propanoic acid]	≥ 8.00	> 5
CC[C@@H]1CN(Cc2cc(C(CC(=O)O)c3ccc4c(nnn4C)c3C)cc3ccsc23)Cc2nc(F)ccc2O1 (stereo partly drawn) [Example 57, 3-(1,4-Dimethyl-1H-benzotriazol-5-yl)-3-(7-{[(2R)-2-ethyl-7-fluoro-2,3-dihydropyrido[2,3-f][1,4]oxazepin-4(5H)-yl]methyl}-1-benzothiophen-5-yl)propanoic acid]	7.52 to 8.00	> 5
CC[C@@H]1CN(Cc2cc(C(CC(=O)O)c3ccc4c(nnn4CCCS(C)(=O)=O)c3C)cc3ccsc23)Cc2nc(O)ccc2O1 (stereo partly drawn) [Example 62, 3-(7-{[(2R)-2-Ethyl-7-hydroxy-2,3-dihydropyrido[2,3-f][1,4]oxazepin-4(5H)-yl]methyl}-1-benzothiophen-5-yl)-3-{4-methyl-1-[3-(methylsulfonyl)propyl]-1H-benzotriazol-5-yl}propanoic acid]	7.52 to 8.00	> 5
CC[C@@H]1Cc2cccnc2CN(Cc2cc(C(CC(=O)O)c3ccc4c(nnn4C)c3C)cc3ccsc23)C1 (stereo partly drawn) [Example 63, 3-(1,4-Dimethyl-1H-benzotriazol-5-yl)-3-(7-{[(6R)-6-ethyl-5,6,7,9-tetrahydro-8H-pyrido[2,3-c]azepin-8-yl]methyl}-1-benzothiophen-5-yl)propanoic acid]	6.52 to 7.52	3 to 5
CC[C@H]1Cc2cccnc2CN(Cc2cc(C(CC(=O)O)c3ccc4c(nnn4C)c3C)cc3ccsc23)C1 (stereo partly drawn) [Example 64, 3-(1,4-Dimethyl-1H-benzotriazol-5-yl)-3-(7-{[(6S)-6-ethyl-5,6,7,9-tetrahydro-8H-pyrido[2,3-c]azepin-8-yl]methyl}-1-benzothiophen-5-yl)propanoic acid]	6.52 to 7.52	> 5
CC[C@@H]1CN(Cc2cc([C@@H](CC(=O)O)c3cnc4c(nnn4C)c3C)cc3ccsc23)Cc2nc(N)ccc2O1 [Example 67, (3R)-3-(7-{[(2R)-7-Amino-2-ethyl-2,3-dihydropyrido[2,3-f][1,4]oxazepin-4(5H)-yl]methyl}-1-benzothiophen-5-yl)-3-(3,7-dimethyl-3H-[1,2,3]triazolo[4,5-b]pyridin-6-yl)propanoic acid]	7.52 to 8.00	> 5
CC[C@@H]1CN(Cc2cc([C@H](CC(=O)O)c3cnc4c(nnn4C)c3C)cc3ccsc23)Cc2nc(N)ccc2O1 [Example 68, (3S)-3-(7-{[(2R)-7-Amino-2-ethyl-2,3-dihydropyrido[2,3-f][1,4]oxazepin-4(5H)-yl]methyl}-1-benzothiophen-5-yl)-3-(3,7-dimethyl-3H-[1,2,3]triazolo[4,5-b]pyridin-6-yl)propanoic acid]	7.52 to 8.00	> 5
CC[C@H]1Cc2cccnc2CN(Cc2cc([C@@H](CC(=O)O)c3ccc4c(nnn4C)c3C)cc3ccsc23)C1 [Example 69, (3R)-3-(1,4-Dimethyl-1H-benzotriazol-5-yl)-3-(7-{[(6S)-6-ethyl-5,6,7,9-tetrahydro-8H-pyrido[2,3-c]azepin-8-yl]methyl}-1-benzothiophen-5-yl)propanoic acid]	7.52 to 8.00	> 5
CC[C@H]1Cc2cccnc2CN(Cc2cc([C@H](CC(=O)O)c3ccc4c(nnn4C)c3C)cc3ccsc23)C1 [Example 70, (3S)-3-(1,4-Dimethyl-1H-benzotriazol-5-yl)-3-(7-{[(6S)-6-ethyl-5,6,7,9-tetrahydro-8H-pyrido[2,3-c]azepin-8-yl]methyl}-1-benzothiophen-5-yl)propanoic acid]	≥ 8.00	> 5
Cc1c(C(CC(=O)O)c2cc(CN3Cc4nc(N)ccc4OC4(CC4)C3)c3sccc3c2)cnc2c1nnn2C (stereo not drawn) [Example 71, 3-{7-[(7′-Amino-3′H-spiro[cyclopropane-1,2′-pyrido[2,3-f][1,4]oxazepin]-4′ (5′H)-yl)methyl]-1-benzothiophen-5-yl}-3-(3,7-dimethyl-3H-[1,2,3]triazolo[4,5-b]pyridin-6-yl)propanoic acid]	7.52 to 8.00	> 5
CC[C@H]1Cc2ccc(O)nc2CN(Cc2cc([C@@H](CC(=O)O)c3ccc4c(nnn4C)c3C)cc3ccsc23)C1 [Example 72, (3R)-3-(1,4-Dimethyl-1H-benzotriazol-5-yl)-3-(7-{[(6S)-6-ethyl-2-hydroxy-5,6,7,9-tetrahydro-8H-pyrido[2,3-c]azepin-8-yl]methyl}-1-benzothiophen-5-yl)propanoic acid]	6.52 to 7.52	> 5
CC[C@H]1Cc2ccc(O)nc2CN(Cc2cc([C@H](CC(=O)O)c3ccc4c(nnn4C)c3C)cc3ccsc23)C1 [Example 73, (3S)-3-(1,4-Dimethyl-1H-benzotriazol-5-yl)-3-(7-{[(6S)-6-ethyl-2-hydroxy-5,6,7,9-tetrahydro-8H-pyrido[2,3-c]azepin-8-yl]methyl}-1-benzothiophen-5-yl)propanoic acid]	7.52 to 8.00	> 5
CC[C@@H]1CN(Cc2cc(C(CC(=O)O)c3ccc4c(nnn4C)c3C)cc3ccsc23)Cc2nc(F)c(O)cc2O1 (stereo partly drawn) [Example 74, 3-(1,4-Dimethyl-1H-benzotriazol-5-yl)-3-(7-{[(2R)-2-ethyl-7-fluoro-8-hydroxy-2,3-dihydropyrido[2,3-f][1,4]oxazepin-4(5H)-yl]methyl}-1-benzothiophen-5-yl)propanoic acid]	7.52 to 8.00	> 5
